Numbered stars: 1 amine (or outer) side, 2 acyl side, 3 side chain; on linkers, the order of the positions; unused ones are H or OH. Square brackets hold non-standard residues; d marks the D form. Peptide text beside a SMILES is read from it. * marks the point of attachment. Dolaproine = CO[C@@H]([C@@H]1CCCN1)[C@@H](C)C(=O)O; Hexanoyl(6-maleimido) = O=C1C=CC(=O)N1CCCCCC(=O)*; Dil = CC[C@H](C)[C@H](NC)[C@@H](CC(=O)O)OC; PABC = O=C(OCc1ccc(N[*:1])cc1)[*:2]; X1 = C[C@@H](N*)[C@@H](O)c1ccccc1; Cit = NC(=O)NCCC[C@H](N)C(=O)O; NMeV = CN[C@H](C(=O)O)C(C)C
What was measured:
PANC1 cells [1] = experiment: Uptake of fluorescein-albumin conjugate with macropinocytosis inhibitor, PANC1 cells; assay type: cell-based, human; conditions: EIPA 50 μM and 75 μM, flow cytometer
Description: (§1) FIGS. 10A-10B: (A) MIA PaCa2 cells and (B) PANC1 cells were seeded in 12-well plates at 5×10^5 cells/well and allowed to attach overnight. Cells were first starved in serum free medium for 2 hours followed by treatment with macropinocytosis inhibitor (EIPA: 5-(N-Ethyl-N-isopropyl)amiloride) for 30 min. […] Then cells were detached and analyzed by flow cytometer (Accuri). […] (*p<0.05, **p<0.01)

MIA PaCa2 cells [2] = experiment: Uptake of fluorescein-albumin conjugate with macropinocytosis inhibitor, MIA PaCa2 cells; assay type: cell-based, human; conditions: EIPA 50 μM and 75 μM, flow cytometer
Description: as §1

MIA PaCa2 xenografts = experiment: In vivo antitumor efficacy, MIA PaCa2 xenografts; design: species or system mice; conditions: every 4 days, 4 doses; for tumor growth: 0.5 mg/kg MMAE equivalent
Description: Tumor-bearing mouse models: Eight to ten week old athymic female NCr nude mice and C57BL/6 mice (Taconic) were used to establish xenograft mouse model and syngeneic mouse model, respectively. […] The cell suspension was then gently mixed with equal volume of Matrigel® (Corning). Subsequently, 100 μL of each mixed cell suspension (MIA PaCa2 and mT4-2D) was subcutaneously inoculated into both flanks of NCr nude mice and C57BL/6 mice, respectively. After the tumors were palpable, tumor volumes were measured two times a week. The tumor volume was calculated as (1/2×length×[…]).
In vivo antitumor efficacy: Mice bearing MIA PaCa2 xenografts and syngeneic mT4-2D C57BL/6 mice were randomized when the tumor sizes were ˜150 mm^3, respectively. […] Tumor sizes were measured by a digital caliper twice a week starting from Day 0. Mice were euthanized when either tumor volume exceeded 1500 mm^3.
Statistical analysis: All of the experiments were repeated at least three times. Statistical significance was calculated using two-way ANOVA followed by Tukey's test. Survival curve was analyzed by log-rank test using GraphPad Prism 8 software.

PANC1 cells [3] = experiment: MTT assay, PANC1 cells; assay type: cell-based, human
Source text: (§2) Cell lines and culture: Human pancreatic cancer cell line MIA PaCa2 cells and primary umbilical vein endothelial cells (HUVEC) were purchased from American Type Culture Collection (ATCC). Human pancreatic cancer cell line PANC1 cells were kindly provided by Dr. Zhengrong Cui (College of Pharmacy, The University of Texas at Austin). Mouse mT4-2D pancreatic cancer cell line, which is derived from a Kras^+/LSL-G12DTp53^+/LSL-R172HPdx1-Cre transgenic model of pancreatic cancer, was kindly provided by Dr. Kyaw Aung (Livestrong Cancer Institutes, Dell Medical School, The University of Texas at Austin). MIA PaCa2 cells, PANC1, and mT4-2D cells were maintained in Dulbecco's […] with high glucose (Corning). Cell culture medium was supplemented with 10% fetal bovine serum (Gibco) and 100 U/mL penicillin-streptomycin (Gibco). HUVEC cells were maintained according to protocol provided by ATCC. All cells were maintained at 37° C. in a humidified atmosphere with 5% carbon dioxide.
(§3) MTT Assay: Cells were seeded in 96 well plates at a density of 5,000 cells/well. Cells were incubated overnight to allow attachment to the bottom of the plates. […] Untreated cells were used as control. After the treatments, 10 μL of MTT (3-(4,5-Dimethylthiazol-2-yl)-2,5-Diphenyltetrazolium Bromide, 5 mg/mL) was added to each well and incubated for an additional 4 hours. Then, the medium was replaced with 150 μL dimethyl sulfoxide (DMSO). After the formazan crystals were completely dissolved, the absorbance at 570 nm was read by a plate reader (Infinite®200 Pro, Tecan). Cell survival rate was calculated as follows: […]
(§4) The IC50 (half maximal inhibitory concentration) was calculated using GraphPad Prism 8.

[4] = Plasma pharmacokinetics of free and total MMAE in MIA PaCa2 tumor-bearing mice; assay type: in vivo; conditions: for plasma concentration of free MMAE: 10 min after single intravenous dose, 0.5 mg/kg MMAE equivalent
Description: (§5) Quantification of MMAE by LC-MS: An Agilent 1260 Infinity liquid chromatography system (G1312B) with an Agilent 6530 Q-TOF mass spectrometer was used to detect the drug MMAE. 5 μL of sample was injected into an Eclipse Plus C18 column (50×2.1 mm, 5 μm) followed by a gradient elution at 0.7 mL/min. […] Electrospray ionization source was used in positive mode. To derive standard curves for MMAE, drug standards were spiked into blank matrix along with internal standard. Samples were then prepared for LC-MS analysis. MMAE was monitored at m/z 740 [M+Na]+, 719 [M+H]+, 371 [M+Na+1-1]^2+ and 360 [M+2H]^2±. Deuterated (D8) MMAE as internal standard was monitored at m/z 748 [M+Na]+, 727 [M+H]+, 375 [M+Na+1-1]^2+ and 364 [M+2H]^2±. The peak area of each drug standard was derived by the peak area of internal standard. The peak area ratios were then plotted as a function of standard concentrations and data points were fitted using linear regression (GraphPad). MMAE concentrations in test samples were quantified using the peak area ratio between MMAE and D8-MMAE and calculated using the standard curves.
(§6) Pharmacokinetics and tissue distribution: Thirty-six mice bearing MIA PaCa2 tumors were equally divided into 4 groups. […] All treatment arms were dosed with an equivalent amount of MMAE at 0.5 mg/kg. At 10 min, 24 h, 48 h, 72 h, 96 h and 168 h post-administration, blood samples were collected from 3 mice in each group through tail vein. Plasma was separated immediately using BD microtainer. At 24 h, 72 h and 168 h after administration, 3 mice from each group were euthanized to collect liver, kidney, and tumor tissue samples. Plasma and tissue samples were stored at −80° C. until further analysis.
(§7) To determine the amount of free MMAE in plasma samples, 1 μL D8-MMAE (250 ng/mL) internal control was added into 10 μL plasma samples and then mixed with 89 μL acetonitrile. The mixture was thoroughly mixed and centrifuged (12,000 rpm, 20 min, 4° C.). The supernatant was collected for LC-MS quantification. To determine free MMAE in mouse tissues, weighed tissues were homogenized with ice-cold PBS containing protease inhibitors (cOmplete™ ULTRA Tablets, Roche) using a tissue homogenizer (Fisher Scientific) to a final concentration of 600 mg/mL. The homogenized suspension was centrifuged at 12,000 rpm for 20 min at 4° C. As an internal control, 1 μL D8-MMAE (250 ng/mL) was added into 20 μL of the supernatant and then mixed with 79 μL acetonitrile. After the mixture was mixed and centrifuged, the supernatant was collected for LC-MS for quantification.
(§8) Briefly, freshly prepared papain (Sigma-Aldrich) was added to plasma and tissue samples at a final concentration of 2 mg/mL, and the mixtures were incubated at 40° C. for 16 hours. The resulting samples were treated as method described above for LC-MS quantification.

[5] = Maximum tolerated dose in healthy athymic NCr nude mice; assay type: in vivo
Description: Maximum tolerated dose: All animal experiments were approved and performed under the guidelines by the Institutional Animal Care and Use Committee at. The University of Texas at Austin. […] Mice were injected every 4 days for a total of 4 repeated doses. Body weight and general appearance of each mice were monitored for 10 days after the last dose of injection.

HUVEC cells = experiment: MTT assay, HUVEC cells; assay type: cell-based, human
Source text: as §2
MTT Assay: Cells were seeded in 96 well plates at a density of 5,000 cells/well. […] After the formazan crystals were completely dissolved, the absorbance at 570 nm was read by a plate reader (Infinite®200 Pro, Tecan). Cell survival rate was calculated as follows: […]
as §4

[6] = Body weight change at 0.9 mg/kg MMAE equivalent dose; assay type: in vivo, mice; conditions: multiple dosing
Description: FIGS. 15A-15E: Body weight change of mice when dosed with 0.9 mg/kg MMAE equivalent dose. […] Body weights of mice during and after treatments were monitored. (n=5). Data shown as mean±standard deviation. Mice in MMAE group (B) were dosed with 0.9 mg/kg MMAE at Day 0 and 4.

MIA PaCa2 cells [7] = experiment: MTT assay, MIA PaCa2 cells; assay type: cell-based, human
Source text: as §2, §3, §4

[8] = Tissue distribution of free and total MMAE in MIA PaCa2 tumor-bearing mice; assay type: in vivo; conditions: 24 hours after single dose
Description: as §5, §6, §7, §8

soft-tissue sarcoma = conditions: minimal cardiac toxicity; cited from earlier work
[9] = total MMAE in plasma, 0.5 mg/kg i.v.

## CCN(c1nc(N)c(C(=O)N=C(N)N)nc1Cl)C(C)C [EIPA, 5-(N-Ethyl-N-isopropyl)amiloride]
PANC1 cells [1]
  inhibition of uptake of fluorescein-albumin conjugate (ALDC1): significantly inhibit
MIA PaCa2 cells [2]
  inhibition of uptake of fluorescein-albumin conjugate (ALDC1): significantly inhibit

## CC[C@H](C)[C@@H]([C@@H](CC(=O)N1CCC[C@H]1[C@H](OC)[C@@H](C)C(=O)N[C@H](C)[C@@H](O)c1ccccc1)OC)N(C)C(=O)[C@@H](NC(=O)[C@@H](NC)C(C)C)C(C)C [MMAE, monomethyl auristatin E] (H-[NMeV]V[Dil][Dolaproine]-X1)
MIA PaCa2 xenografts
  tumor growth: slowed down tumor growth
PANC1 cells [3]; 24 hours
  IC50: 0.52 nM
PANC1 cells [3]; 48 hours
  IC50: 0.21 nM
PANC1 cells [3]; 72 hours
  IC50: 0.21 nM
[4]
  plasma concentration of free MMAE: 86.03 ± 17.78 ng/mL
[5]; MMAE equivalent dose, every 4 days, 4 doses, body weight change within 20%
  maximum tolerated dose: approximately 0.5 mg/kg
HUVEC cells; 24 hours
  IC50: 0.067 nM
HUVEC cells; 48 hours
  IC50: 0.012 nM
[6]
  loss of body weight: > 20%
MIA PaCa2 cells [7]; 24 hours
  IC50: 0.54 nM
MIA PaCa2 cells [7]; 48 hours
  IC50: 0.46 nM
MIA PaCa2 cells [7]; 72 hours
  IC50: 0.5 nM

## CC[C@H](C)[C@@H]([C@@H](CC(=O)N1CCC[C@H]1[C@H](OC)[C@@H](C)C(=O)N[C@H](C)[C@@H](O)c1ccccc1)OC)N(C)C(=O)[C@@H](NC(=O)[C@H](C(C)C)N(C)C(=O)OCc1ccc(NC(=O)[C@H](CCCNC(N)=O)NC(=O)[C@@H](NC(=O)CCCCCN2C(=O)C=CC2=O)C(C)C)cc1)C(C)C [MMAE-MAL, mc-vc-pab-MMAE] ({Hexanoyl(6-maleimido)}-V[Cit][PABC][NMeV]V[Dil][Dolaproine]-X1)
[8]
  amount of free MMAE in tumor compared to the MMAE group: about 2 fold
[8]; 0.5 mg/kg MMAE
  accumulation of free MMAE in tumor: 2.2 % ID/g
  total MMAE in liver: 0.3 % ID/g
  total MMAE in tumor: 3.3 % ID/g
[8]; no statistical difference to MMAE group
  free MMAE in the liver and kidney: low levels
MIA PaCa2 xenografts
  tumor growth: significantly delayed
MIA PaCa2 xenografts; 0.5 mg/kg equivalent to MMAE
  median survival of tumor-bearing mice: 81 days
[4]
  plasma concentration of free MMAE: 669.67 ± 78.94 ng/mL
[4]; free MMAE, 10 min after dosing, 0.5 mg/kg
  premature release of MMAE in plasma compared to the ALDC1 group: 13 fold
[4]; [9]
  AUC 0-∞: 141.1938 µg·h/mL
  AUMC 0-∞: 2827552.1 ng/ml*h^2
  Cl: 3.54E−06 (mg/kg)/(ng/ml)/h
  MRT: 20.02 h
  T1/2: 27.82 h
[4]; total MMAE in plasma, time 0 to 168 hours, 0.5 mg/kg i.v.
  AUC 0-t: 139.9281 µg·h/mL
[5]; percent weight loss from original weight
  maximum tolerated dose compared with ALDC1: lower maximum tolerated dose
[6]
  loss of body weight: ~20%

## COc1cccc2c1C(=O)c1c(O)c3c(c(O)c1C2=O)C[C@@](O)(/C(CO)=N/NC(=O)CCCCCN1C(=O)C=CC1=O)C[C@@H]3O[C@H]1C[C@H](N)[C@H](O)[C@H](C)O1 [aldoxorubicin]
soft-tissue sarcoma
  safely administered dose compared to doxorubicin: 3.47 fold

Source: US20230218773A1 (priority 2020, published 2023)
